Patent publication US20250066502A1, “MEDICAMENT FOR TREATMENT AND/OR PREVENTION OF CANCER” (TORAY INDUSTRIES, INC., priority 2021, published 2025)

Key:
Format in all cases: cell-based
[1] = test system: human lung cancer cell line A549; test: THP-1-mediated antibody-dependent phagocytic activity against A549; settings: THP-1 coculture 2.5 hours
Procedure: (§1) Specifically, in each combination test group (a romidepsin combination test group, a panobinostat combination test group, and a cisplatin combination test group), the indicated drug used in combination was applied to human cancer cells, and then the cancer cells were cocultured with human monocytic cells (THP-1) in the presence of the anti-CAPRIN-1 antibody, and the antibody-mediated phagocytic activity against the cancer cells by THP-1 was evaluated. […] The concentration of the drug used in combination was set to a concentration that decreased the proliferation rate of the cancer cells by about half at the completion of culture. As a control, a test group without a drug used in combination was established. […] Further, dead cells were stained with propidium iodide (PI) (final concentration: 0.1 μg/mL), followed by the measurement of fluorescence from the cells by flow cytometry. PI-positive dead cells were excluded from analysis. The human monocytic cells THP-1 recognize an antibody bound onto cancer cells and phagocytize the cancer cells. At that time, if the cancer cells have been stained with calcein-AM, the monocytic cells ingesting the cancer cells by phagocytosis also become positive to calcein-AM. Thus, the phagocytic activity in this evaluation system was calculated as the ratio (%) of APC-positive/calcein-AM-positive cells to the whole calcein-AM-positive population.

[2] = test system: human ovarian cancer cell line TOV-21G; test: THP-1-mediated antibody-dependent phagocytic activity against TOV-21G; settings: panobinostat combination test group (30 nM, 2 days) with anti-CAPRIN-1 antibody, THP-1 coculture 1 hour
Procedure: (§2) Specifically, in each combination test group (a romidepsin combination test group and a panobinostat combination test group), the indicated drug used in combination was applied to human cancer cells, and then the cancer cells were cocultured with human monocytic cells (THP-1) in the presence of the anti-CAPRIN-1 antibody, and the antibody-mediated phagocytic activity against the cancer cells by THP-1 was evaluated. […] As a control, a test group without a drug used in combination was established. […] Further, dead cells were stained with propidium iodide (PI) (final concentration: 0.1 μg/mL), followed by the measurement of fluorescence from the cells by flow cytometry. PI-positive dead cells were excluded from analysis. The human monocytic cells THP-1 recognize an antibody bound onto cancer cells and phagocytize the cancer cells. At that time, if the cancer cells have been stained with calcein-AM, the monocytic cells ingesting the cancer cells by phagocytosis also become positive to calcein-AM. Thus, the phagocytic activity in this evaluation system was calculated as the ratio (%) of APC-positive/calcein-AM-positive cells to the whole calcein-AM-positive population.

[3] = test system: human colon cancer cell line HCT116; test: THP-1-mediated antibody-dependent phagocytic activity against HCT116; settings: panobinostat combination test group (10 nM, 2 days) with anti-CAPRIN-1 antibody, THP-1 coculture 2.5 hours
Procedure: as §1

[4] = test system: human prostate cancer cell line DU145; test: THP-1-mediated antibody-dependent phagocytic activity against DU145; settings: THP-1 coculture 2.5 hours
Procedure: as §1

[5] = test system: human breast cancer cell line MDA-MB-231; test: THP-1-mediated antibody-dependent phagocytic activity against MDA-MB-231; settings: panobinostat combination test group (30 nM, 2 days) with anti-CAPRIN-1 antibody, THP-1 coculture 1 hour
Procedure: as §2

[6] = test system: human bile duct cancer cell line KKU-100; test: THP-1-mediated antibody-dependent phagocytic activity against KKU-100; settings: romidepsin combination test group (2 nM, 2 days) with anti-CAPRIN-1 antibody, THP-1 coculture 1 hour
Procedure: as §2

[7] = test system: human uterus cancer cell line MFE-296; test: THP-1-mediated antibody-dependent phagocytic activity against MFE-296; settings: romidepsin combination test group (20 nM, 2 days) with anti-CAPRIN-1 antibody, THP-1 coculture 1 hour
Procedure: as §2

[8] = panobinostat combination test group (10 nM, 2 days) with anti-CAPRIN-1 antibody
[9] = romidepsin combination test group (1 nM, 2 days) with anti-CAPRIN-1 antibody

For N.N.[Cl][Pt][Cl] [cisplatin], the “phagocytic activity against cancer cells” value ([1]; cisplatin combination test group (20 μM, 2 days) with anti-CAPRIN-1 antibody) was 13%.

In the case of Cc1[nH]c2ccccc2c1CCNCc1ccc(/C=C/C(=O)NO)cc1 [panobinostat, (2E)-N-Hydroxy-3-[4-({[2-(2-methyl-TH-indol-3-yl)ethyl]amino}methyl)phenyl]prop-2-enamide], the “phagocytic activity against cancer cells” value [1, 8] is reported as 15%, the “phagocytic activity against cancer cells” value [2] is reported as 81% and the “phagocytic activity against cancer cells” value [3] is reported as 32%. The “phagocytic activity against cancer cells” value [4, 8] was 8% and the “phagocytic activity against cancer cells” value [5] was 41%.

For C/C=C1\NC(=O)[C@H]2CSSCC/C=C/[C@H](CC(=O)N[C@H](C(C)C)C(=O)N2)OC(=O)[C@H](C(C)C)NC1=O [romidepsin, (1S,4S,10S,16E,21R)-7-[(2Z)-ethylidene]-4,21-bis(1-methylethyl)-2-oxa-12,13-dithia-5,8,20,23-tetraazabicyclo[8.7.6]tricos-16-ene-3,6,9,19,22-pentone], the “phagocytic activity against cancer cells” value [1, 9] was 29%, the “phagocytic activity against cancer cells” value [6] was no less than 14% and the “phagocytic activity against cancer cells” value [7] was no less than 27%. The “phagocytic activity against cancer cells” value [4, 9] was 8%.
